Assay type in all cases: cell-based, cotton (Coker 312)
The subject of one experiment is cotton embryos. Briefly: Embryo germination on germination media with varying carbohydrate concentration. The procedure: The preparation of Agrobacterium, seed sterilization, seed germination, inoculation, co-culture, and selection were performed as described in Example 1. Embryos were induced as outlined in Examples 2, 3, and 4. After eight weeks, the embryogenic tissue that formed was transferred to an embryo maturation media as described in Examples 5 and 6. Cultures were monitored for the presence of actively growing embryos.
About every four weeks, actively growing tissue and small embryos were removed and placed on fresh maturation media. The embryos were spaced on the culture plates with adequate room for growth. The tissue was returned to the warm room and incubated under the same growth conditions.
Embryos larger than about 5 mm were transferred to a germination media (Stewart and Hsu, Planta 137:113-117, […]) with various carbohydrate concentrations and 0.25 g/L GELRITE. The embryos are incubated at 28° C. in a lighted incubator with a 16/8 day/night cycle.
Various concentrations of glucose and sucrose in the germination media were tested. The germination media comprised sucrose or glucose at concentrations ranging from about 0%-2% (w/v).

The test system of experiment [1] is transgenic cotton calli (Coker 312). Briefly: Induction of embryogenesis in transgenic cotton callus on induction media with antioxidant (ascorbic acid). The procedure: […] This culture was maintained at 28° C. under conditions of dark or limited lighting. The dark or limited lighting conditions were accomplished using a black bag, a covering of aluminum foil, or by incubating in a dark growth chamber. Alternatively, the transgenic calli may be incubated under green light. The incubation is continued for about eight to ten weeks.

Another experiment concerns embryogenic cotton calli. Briefly: Embryogenic callus formation on induction media with ethylene inhibitors. The following applies: 40 calli tested. The procedure:
The transgenic calli were removed from the hypocotyls and transferred to a culture containing hormone-free media comprising the following components per liter: 4.4 g MS salts with B5 vitamins; 30 g glucose, pH 5.8; an antioxidant, such as ascorbic acid (10-100 mg); an ethylene inhibitor, such as aminoethoxyvinylglycine at approximately 5 μM; GELRITE or PHYTAGEL (2-3 g); and selective agents as described above. This culture was maintained at 28° C. under conditions of dark or limited lighting. The dark or limited lighting conditions were accomplished using a black bag, a covering of aluminum foil, or by incubating in a dark growth chamber. Alternatively, the transgenic calli may be incubated under green light. The incubation is continued for about eight to ten weeks.
In two separate experiments, the ethylene inhibitors AVG (aminoethoxy-vinylglycine), DNP (2,4-dinitrophenol), and salicylic acid were tested to determine their influence on the induction of embryogenic cotton calli.

[2] abbreviates: 0.1% carbohydrate in germination media.
[3] abbreviates: 0.5% carbohydrate in germination media.
The mark [4] stands for this setting: 1% carbohydrate in germination media.
Where [5] appears, read: 2% carbohydrate in germination media.
Where [6] appears, read: pMON20956 vector, ascorbic acid 100 mg/L.

The structures appear in SMILES notation.

Take `OC[C@H]1O[C@@](CO)(O[C@H]2O[C@H](CO)[C@@H](O)[C@H](O)[C@H]2O)[C@@H](O)[C@@H]1O` [sucrose]: the “# Plantlets with Expanded Leaves” value worked out at 7 in the experiment on cotton embryos (setting [2]), 10 with cotton embryos (setting [3]), 6 in the experiment on cotton embryos (setting [4]) and 5 with cotton embryos (setting [5]). The “Transformation Frequency” value with cotton embryos (setting [2]) is reported as 47%; in the experiment on cotton embryos (setting [3]), 43%; in the experiment on cotton embryos (setting [4]) it was 27%; with cotton embryos (setting [5]), 28%. Besides, the “effect on frequency of embryo germination and plantlet formation” value in the experiment on cotton embryos (concentrations ranging from about 0% to 0.5% (w/v) in germination media) was “significantly increased the frequency of embryo germination and plantlet formation”.
With `O=C1O[C@H]([C@@H](O)CO)C(O)=C1O` [Ascorbic Acid, ascorbic acid], the “effect on frequency of embryogenesis” value in experiment [1] (Coker 312, two independent experiments) is “increase the frequency of embryogenesis”. Besides, in experiment [1] (setting [6]), the “% Embryogenic Calli Transfer 1” value turned out to be 3%, the “% Embryogenic Calli Transfer 2” value came out at 31% and the “Total Frequency of Embryogenesis” value is 34%.
In the case of `O=C(O)c1ccccc1O` [salicylic acid], the “Embryogenic Calli Formed” value in the experiment with embryogenic cotton calli (Expt 1 pMON10517, 50 μM) came to 12; in the experiment on embryogenic cotton calli (Expt 2 pMON10079, 50 μM) it was 17. The “Frequency of Formation” value turned out to be 30% with embryogenic cotton calli (Expt 1 pMON10517, 50 μM) and 43% in the experiment on embryogenic cotton calli (Expt 2 pMON10079, 50 μM).
As for `O=[N+]([O-])c1ccc(O)c([N+](=O)[O-])c1` [DNP, 2,4-dinitrophenol], the “Embryogenic Calli Formed” value is recorded as 17 with embryogenic cotton calli (Expt 1 pMON10517, 1 μM) and 16 with embryogenic cotton calli (Expt 2 pMON10079, 1 μM). Moreover, the “Frequency of Formation” value turned out to be 43% in the experiment on embryogenic cotton calli (Expt 1 pMON10517, 1 μM) and 40% in the experiment with embryogenic cotton calli (Expt 2 pMON10079, 1 μM).

Values taken from US20040087030A1, “Method for the regeneration of cotton” (priority 1998, published 2004).
